Like-named read-outs stand apart in the source and are kept apart here.
Key:
[1] = tested on: Trypanosoma cruzi Tulahuen cells expressing beta-galactosidase; experiment: T. cruzi intracellular assay (beta-galactosidase, L6 host cells); settings: for IC50: Trypanosoma cruzi, TULAHUEN; for Selectivity L6/TC-I: Table 3A
[2] = tested on: rat skeletal muscle cell line, L6; experiment: cells; format: cell-based
[3] = tested on: Leishmania amazonensis promastigotes expressing beta-lactamase; experiment: microbe, parasite or virus in culture; format: cell-based; settings: for IC50: Leishmania amazonensis, read-out: IC50 L. amaz.
[4] = tested on: Trypanosoma brucei brucei 427 cells; experiment: T. brucei culture and assay (PrestoBlue); format: cell-based
[5] = read-out: IC50 T. cruzi, Table 1, intracellular assay, mean of 2(+) trials (^c one trial)
[6] = read-out: IC50 T. cruzi, Table 2, intracellular assay, mean of 2(+) independent trials
[7] = Rattus norvegicus, Table 1, read-out: IC50 Toxicity (L6)
[8] = Trypanosoma brucei, Table 1, mean of 2(+) independent trials, read-out: IC50 T. brucei
[9] = read-out: IC50 TC-I, Table 3A, weighted means of two or more independent trials
[10] = Rattus norvegicus, Table 3A, weighted means of two or more independent trials, read-out: IC50 L6
[11] = Table 1, intracellular T. cruzi IC50
[12] = Table 2, L6 IC50 / T. cruzi IC50 (intracellular assay)
[13] = estimated from highest L6 dose tested where no L6 IC50
[14] = Table 2, L6 IC50 / L. amazonensis IC50
[15] = Table 2, mean of 2(+) independent trials, read-out: IC50 T. brucei
[16] = read-out: IC50 TC-I, Table 3B, weighted means of two or more independent trials
[17] = Rattus norvegicus, Table 3B, weighted means of two or more independent trials, read-out: IC50 L6

| SMILES | IC50 [1, 5] [µM] | IC50 [1, 6] [µM] | IC50 [2, 7] [µM] | IC50 [3] [µM] | melting point [°C] | IC50 [4, 8] [µM] | IC50 [1, 9] [µM] | IC50 [2, 10] [µM] | Selectivity L6/La ([3]; Table 1) | Selectivity L6/La [3, 14] | IC50 [4, 15] [µM] | also measured |
| --- | --- | --- | --- | --- | --- | --- | --- | --- | --- | --- | --- | --- |
| COc1ccc2c(c1)O/C(=C\c1ccc(C)cc1)C2=O [Aurone 5002, (Z)-6-methoxy-2-(4-methylbenzylidene)benzofuran-3(2H)-one] | > 50 | > 50 | 183 | 10.5 | 115 to 122 | 40.7 |  |  |  |  |  |  |
| O=C1/C(=C/c2cccs2)Oc2c1ccc(O)c2O [Aurone 1001, (Z)-6,7-dihydroxy-2-(thiophen-2-ylmethylene)benzofuran-3(2H)-one] | > 50 |  | 50.6 | 22.9 | 168 to 170 | 25.3 |  |  |  |  |  |  |
| COC(=O)c1ccc(/C=C2\Oc3ccccc3C2=O)cc1 [Aurone 9047, Methyl (Z)-4-((3-oxobenzofuran-2(3H)-ylidene)methyl)benzoate] | > 50 |  | > 100 | 24.2 | 144 to 147 | > 50 | > 50 | > 100 | >4.13 |  |  |  |
| O=C1/C(=C/c2ccc(I)cc2)Oc2ccccc21 [Aurone 9029, (Z)-2-(4-iodobenzylidene)benzofuran-3(2H)-one] | 11.1 | 11.1 | > 100 | 3.11 | 176 to 179 | > 50 | 11.1 | > 100 | >32.15 | >32.15 | > 50 | Selectivity L6/Tc [1, 11]: >9.04; Selectivity L6/Tc [1, 12]: >9.04; Selectivity L6/TC-I [1, 13]: >9.04; IC50 ([2]; Table 2, L6 mammalian cells, read-out: IC50 Toxicity (L6)): > 100 µM |
| CCCCc1ccc(/C=C2\Oc3ccccc3C2=O)cc1 [Aurone 3009, (Z)-2-(4-butylbenzylidene)benzofuran-3(2H)-one] | > 50 | > 50 | 35 | 2.36 | 80 to 81 | > 50 | 7.99 | 35 | 14.84 | 14.84 | > 50 | Selectivity L6/TC-I [1, 13]: 4.38 |
| Cc1[nH]cnc1/C=C1\Oc2ccccc2C1=O [Aurone 9059, (Z)-2-((5-methyl-H-imidazol-4-yl)methylene)benzofuran-3(2H)-one] | 5.25 | 5.25 | 321 | 3.96 | 180 to 183 | > 50 |  |  | 80.99 | 80.99 | > 50 | selectivity for T. cruzi (L6/Tc) [1]: 61.09; Selectivity L6/Tc [1, 11]: 61.09; Selectivity L6/Tc [1, 12]: 61.09; Selectivity L6/Tc-I ([1]; Table 3B, estimated from highest L6 dose tested where no L6 IC50): 61.09; IC50 [1, 16]: 5.25 µM; IC50 ([1]; read-out: T. cruzi IC50 dose): 5.25 µM; IC50 [2, 17]: 321 µM; IC50 ([4]; Trypanosoma brucei, read-out: T. brucei IC50 dose): > 50 µM |
| O=C1/C(=C/c2cc(Br)c(Br)s2)Oc2ccccc21 [Aurone 9050, (Z)-2-((4,5-dibromothiophen-2-yl)methylene)benzofuran-3(2H)-one] | > 50 | > 50 | > 100 | 9.24 | 185 to 190 | > 50 |  |  |  |  |  | IC50 [1, 16]: > 50 µM; IC50 [2, 17]: > 100 µM |
| CC(=O)Nc1ccc(/C=C2\Oc3ccccc3C2=O)cc1 [Aurone 3006, (Z)-N-(4-((3-oxobenzofuran-2(3H)-ylidene)methyl)phenyl)acetamide] | > 50 |  | > 100 | 12.5 | 260 to 270 | > 50 |  |  | >7.99 |  |  | IC50 ([1]; read-out: IC50 TC-I, Table 3C, intracellular T. cruzi, weighted means of two or more independent trials): > 50 µM; IC50 ([2]; Rattus norvegicus, Table 3C, weighted means of two or more independent trials, read-out: IC50 L6): > 100 µM |
| O=C1/C(=C/c2ccc(O)cc2)Oc2ccccc21 [Aurone 9068, (Z)-2-(4-hydroxybenzylidene)benzofuran-3(2H)-one] | > 50 | > 50 | > 200 | 1.57 | 258 to 260 | > 50 |  |  |  |  |  |  |

Reference: US20200399238A1, “THERAPEUTIC AURONES” (MIDDLE TENNESSEE STATE UNIVERSITY, priority 2016, published 2020)
